What was measured:
[1] = Cytotoxicity by LDH release; format: cell-based, human; conditions: human, Caco-2 cells, 24 h, LDH release, no FBS
Procedure: (§1) We evaluated 12 selected compounds for cytotoxicity to Caco-2 (human colonic carcinoma) cells as described previously (Xu et al., [2015]). The Caco-2 cells were obtained from the American Type Culture Collection (ATCC Rockville, MD) and maintained in minimal essential medium (MEM) supplemented with 20% fetal bovine serum (FBS), 1% non-essential amino acid (NEAA; Life Technologies, NY) and with 1 mM sodium pyruvate at 37°C in a humidified 5% CO2 incubator. A 96-well tissue culture plate was seeded with approximately 1.4 × 10^5 cells per well and incubated for 24 h at 37°C in an incubator until a confluent monolayer formed. It was necessary to assess the dose dependent cytotoxicity effect of DMSO as compounds were diluted in DMSO therefore, we determined the cytotoxic effect of varying concentrations of the DMSO vehicle control (1, 2, and 5%) in Caco-2 cells containing 150 μL of media (without FBS) incubated at 24 h. There was no significant difference among the varying DMSO concentrations and their cytotoxicity values. Therefore, we used 1% DMSO in duplicate wells along with other appropriate controls for cytotoxicity experiment.
(§2) It is likely that the compounds can bind to serum proteins (FBS) present in the media and thus influence the true cytotoxic effect of the compounds; therefore, we performed the cytotoxicity assay in absence of FBS. The cytotoxicity assay was performed according to manufacturer instructions (Pierce TM; Thermo Scientific, IL) and the percentage of cytotoxicity was calculated by measuring the release of lactate dehydrogenase (LDH) enzyme from the treated cells. Briefly, ~1.4 × 10^5 cells were grown in a 96-well tissue culture plate containing 150 μL of growth medium. After three washes with medium without supplementation, 1 μL (200 μM) of compound was added to duplicate wells and incubated for 24 h at 37°C in a humidified, 5% CO2 incubator. Subsequently, 50 μL of supernatants were collected for measuring LDH release and the degree of cytotoxicity was determined according to the manufacturer instructions.
(§3) Three independent experiments were conducted in duplicate samples in each experiment and the average cytotoxicity values were plotted.

[2] = system: Caco-2 (human colonic carcinoma) cells; assay: Cytotoxicity by LDH release; format: cell-based; conditions: Caco-2 cells, 200 μM; for Cytotoxicity (%): 24 h, LDH release, no FBS
Procedure: as §1, §2, §3

Row | SMILES | cytotoxicity at 24 h, 200 µM [1] | Cytotoxicity (%) [2] | Relative cytotoxicity among the 12 compounds [2]
1 | COc1ccc(CN2CCN(c3ccc(F)cc3)CC2)cc1C [Comp 2] | ≤ 10% | 6.9% | 
2 | Cc1c(C(C)NCc2cccc(OC3CCCC3)c2)cnn1-c1ccccc1 (centres unmarked) [Comp 10] | 27.8% |  | 
3 | O=S(=O)(Nc1cccc(C(F)(F)F)c1)c1ccc(Br)cc1 [Comp 1] | 30.3% |  | highest cytotoxicity
4 | Cc1ccc(N2CCN(C/C=C/c3ccccc3)CC2)cc1 [Comp 5] | ≤ 10% | 6.5% | 
5 | CN(C)c1ccc(CN2CCN(c3ccccc3Cl)CC2)cc1 [Comp 3] | 11.3% |  | 
6 | CN(Cc1ccccc1)CC1CCCN(CCc2ccc(F)cc2)C1 (centres unmarked) [Comp 18] | 8.8% |  | 
7 | CC(=O)Nc1ccc(CN(C)CC2CCCN(CCc3cccc(C(F)(F)F)c3)C2)cc1 (centres unmarked) [Comp 22] | 12.1% |  | 
8 | CN(Cc1cccc2cnccc12)CC1CCCN(CCc2ccc(F)cc2)C1 (centres unmarked) [Comp 13] |  | 0% | least cytotoxic
9 | COc1ccc(CNCc2ccc(Cl)s2)cc1OCC(O)CN1CCCC1 (centres unmarked) [Comp 12] |  | 0% | least cytotoxic
10 | O=c1c(Cl)c(Cl)cnn1-c1ccccc1Cl [Comp 7] | 28% |  | 
11 | Clc1ccc(N2CCN(Cc3ccsc3)CC2)cc1 [Comp 4] |  | 4.6% | 
12 | CN(CC(O)COc1ccccc1CNC1(c2ccccc2)CC1)C1CCCCC1 (centres unmarked) [Comp 17] | 16.6% |  | 
